For one experiment, the target named is D(2) dopamine receptor (Rattus norvegicus, UniProt P61169). Put plainly: Binding affinity for rat striatum Dopamine receptor D2 by [3H]spiperone displacement. In kind it is tissue-based.
In experiment [1] the target is T1, 5-hydroxytryptamine receptor 1A (Rattus norvegicus, UniProt P19327).
T1 sequence (P19327 whole entry): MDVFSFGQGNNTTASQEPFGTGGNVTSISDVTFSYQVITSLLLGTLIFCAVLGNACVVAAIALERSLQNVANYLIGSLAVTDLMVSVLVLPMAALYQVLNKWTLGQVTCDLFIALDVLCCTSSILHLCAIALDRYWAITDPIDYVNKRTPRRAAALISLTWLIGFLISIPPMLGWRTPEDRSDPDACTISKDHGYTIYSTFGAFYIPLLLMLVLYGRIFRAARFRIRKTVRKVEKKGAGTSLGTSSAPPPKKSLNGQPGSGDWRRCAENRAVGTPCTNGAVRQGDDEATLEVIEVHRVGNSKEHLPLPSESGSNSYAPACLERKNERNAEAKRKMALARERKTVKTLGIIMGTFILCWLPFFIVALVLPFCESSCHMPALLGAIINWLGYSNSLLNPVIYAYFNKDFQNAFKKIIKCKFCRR
Put plainly: Binding affinity for rat hippocampus 5-hydroxytryptamine 1A receptor by inhibition of [3H]8-OH-DPAT binding. The experiment is classed as tissue-based.

Another experiment concerns the target D(1A) dopamine receptor (Rattus norvegicus, UniProt P18901). Put plainly: Binding affinity for rat striatum Dopamine receptor D1 by […] displacement. The experiment is classed as tissue-based.
The target of experiment [2] is T2, Alpha-2A adrenergic receptor (Rattus norvegicus, UniProt P22909).
T2 sequence (P22909 whole entry): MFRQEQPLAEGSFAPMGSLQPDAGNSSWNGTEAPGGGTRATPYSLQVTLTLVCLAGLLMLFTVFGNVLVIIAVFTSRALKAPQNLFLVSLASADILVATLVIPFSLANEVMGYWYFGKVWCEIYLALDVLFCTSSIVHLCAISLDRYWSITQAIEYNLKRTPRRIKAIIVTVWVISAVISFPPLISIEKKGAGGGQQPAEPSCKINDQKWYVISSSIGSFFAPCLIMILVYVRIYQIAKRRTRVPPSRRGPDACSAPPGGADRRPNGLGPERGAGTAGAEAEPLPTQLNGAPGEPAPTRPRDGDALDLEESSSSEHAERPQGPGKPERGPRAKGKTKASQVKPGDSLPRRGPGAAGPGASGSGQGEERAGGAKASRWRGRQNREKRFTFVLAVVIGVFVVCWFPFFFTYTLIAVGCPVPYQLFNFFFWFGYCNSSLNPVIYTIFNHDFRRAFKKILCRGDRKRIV
Put plainly: Binding affinity for rat cortex alpha-2 adrenergic receptor was determined using [3H]-RX 81002 binding.

Experiment [3] addresses T3, Alpha-1A adrenergic receptor (Rattus norvegicus, UniProt P43140).
T3 sequence (P43140 whole entry): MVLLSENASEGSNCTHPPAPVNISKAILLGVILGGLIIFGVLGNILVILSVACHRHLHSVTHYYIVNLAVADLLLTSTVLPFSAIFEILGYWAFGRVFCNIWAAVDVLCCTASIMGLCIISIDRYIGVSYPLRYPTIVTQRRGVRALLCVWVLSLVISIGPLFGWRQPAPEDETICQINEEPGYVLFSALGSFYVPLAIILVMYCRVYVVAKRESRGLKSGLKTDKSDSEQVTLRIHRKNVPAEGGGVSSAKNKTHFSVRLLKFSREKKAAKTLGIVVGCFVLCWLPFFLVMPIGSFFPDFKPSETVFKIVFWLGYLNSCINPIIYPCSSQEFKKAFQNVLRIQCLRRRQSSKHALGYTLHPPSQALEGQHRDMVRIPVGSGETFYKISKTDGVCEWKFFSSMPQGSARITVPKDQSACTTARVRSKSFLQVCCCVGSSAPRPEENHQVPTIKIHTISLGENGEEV
Put plainly: Binding affinity for rat cortex alpha-1 adrenergic receptor by inhibition of [3H]prazosin binding.

A further experiment concerns the target D(3) dopamine receptor (Rattus norvegicus, UniProt P19020). Put plainly: biochemical.
For experiment [4], the target named is T2, Alpha-2A adrenergic receptor. Put plainly: Binding affinity for rat cortex Alpha-2 adrenergic receptor was determined using [3H]-RX 81002 binding.
Experiment [5] addresses D(3) dopamine receptor (Homo sapiens) (UniProt P35462). Put plainly: Maximal stimulation reached was evaluated by using [35S]- GTP-gamma S radioligand. The experiment is classed as functional.

One may read the Ki as the dissociation constant of the complex between target and ligand, obtained from inhibition or displacement. Low values mean higher affinity, high ones lower affinity.

Molecules are shown by their SMILES.

Sequence of D(1A) dopamine receptor (P18901 whole entry): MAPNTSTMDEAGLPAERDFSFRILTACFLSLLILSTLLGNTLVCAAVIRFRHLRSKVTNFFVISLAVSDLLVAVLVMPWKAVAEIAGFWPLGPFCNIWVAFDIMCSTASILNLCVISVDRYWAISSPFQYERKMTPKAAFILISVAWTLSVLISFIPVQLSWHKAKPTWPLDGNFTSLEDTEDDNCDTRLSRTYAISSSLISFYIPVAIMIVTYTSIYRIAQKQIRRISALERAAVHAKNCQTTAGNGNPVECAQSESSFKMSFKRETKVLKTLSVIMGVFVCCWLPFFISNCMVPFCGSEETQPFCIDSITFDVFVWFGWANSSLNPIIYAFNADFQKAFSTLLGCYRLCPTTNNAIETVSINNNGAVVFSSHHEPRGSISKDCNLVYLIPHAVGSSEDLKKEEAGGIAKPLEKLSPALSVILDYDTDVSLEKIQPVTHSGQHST
Sequence of D(2) dopamine receptor (P61169 whole entry): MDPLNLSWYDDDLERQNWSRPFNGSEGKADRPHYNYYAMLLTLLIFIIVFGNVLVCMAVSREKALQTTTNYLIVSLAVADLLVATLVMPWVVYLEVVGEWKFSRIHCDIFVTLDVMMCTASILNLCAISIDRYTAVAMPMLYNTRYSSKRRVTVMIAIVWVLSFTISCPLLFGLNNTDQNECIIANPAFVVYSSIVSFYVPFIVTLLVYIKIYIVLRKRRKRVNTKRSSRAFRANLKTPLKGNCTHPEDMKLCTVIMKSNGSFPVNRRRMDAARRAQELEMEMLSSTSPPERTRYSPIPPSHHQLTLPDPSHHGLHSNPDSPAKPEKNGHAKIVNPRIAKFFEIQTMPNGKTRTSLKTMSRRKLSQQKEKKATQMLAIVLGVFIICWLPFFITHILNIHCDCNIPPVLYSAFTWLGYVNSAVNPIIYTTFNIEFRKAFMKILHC
Sequence of D(3) dopamine receptor (P19020 whole entry): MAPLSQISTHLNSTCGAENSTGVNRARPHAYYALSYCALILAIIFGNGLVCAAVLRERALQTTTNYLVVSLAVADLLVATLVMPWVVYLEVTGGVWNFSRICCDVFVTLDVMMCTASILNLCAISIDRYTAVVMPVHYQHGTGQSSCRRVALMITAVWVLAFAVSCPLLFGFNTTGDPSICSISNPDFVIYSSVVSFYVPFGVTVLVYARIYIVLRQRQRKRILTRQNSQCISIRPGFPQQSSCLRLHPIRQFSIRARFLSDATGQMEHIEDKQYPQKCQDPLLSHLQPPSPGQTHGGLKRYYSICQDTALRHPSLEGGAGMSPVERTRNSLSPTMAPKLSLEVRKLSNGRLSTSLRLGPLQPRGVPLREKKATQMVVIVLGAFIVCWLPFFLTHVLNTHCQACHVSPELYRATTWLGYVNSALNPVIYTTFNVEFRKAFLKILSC
Sequence of D(3) dopamine receptor (Homo sapiens) (P35462 whole entry): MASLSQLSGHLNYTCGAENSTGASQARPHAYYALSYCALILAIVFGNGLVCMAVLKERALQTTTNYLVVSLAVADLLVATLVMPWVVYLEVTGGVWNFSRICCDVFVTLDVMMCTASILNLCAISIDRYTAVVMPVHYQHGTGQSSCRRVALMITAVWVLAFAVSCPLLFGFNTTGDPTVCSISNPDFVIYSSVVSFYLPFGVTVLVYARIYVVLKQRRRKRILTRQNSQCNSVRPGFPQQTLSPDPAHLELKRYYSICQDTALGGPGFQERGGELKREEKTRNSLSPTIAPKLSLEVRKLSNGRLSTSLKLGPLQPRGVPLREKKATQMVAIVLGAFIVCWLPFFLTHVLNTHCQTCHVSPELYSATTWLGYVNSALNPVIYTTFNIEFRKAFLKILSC

For the molecule `COc1ccccc1N1CCN(CCCCNC(=O)c2cc3ccccc3cn2)CC1`, the Ki at D(2) dopamine receptor was 0.075 µM; in experiment [1] it was 0.00312 µM; on D(1A) dopamine receptor, 1.48 µM; in experiment [2] it was 0.076 µM; in experiment [3] it was 0.0058 µM; on D(3) dopamine receptor, 0.00049 µM.

In the case of `COc1ccccc1N1CCN(CCCCNC(=O)c2cc3ccccc3o2)CC1`, the Ki in experiment [4] came to 0.054 µM; in experiment [3], 0.036 µM.

For `O=C(NCCCCN1CCN(c2ccc(Cl)cc2Cl)CC1)c1cc2cc(Cl)ccc2[nH]1`, the Ki in experiment [4] was > 10 µM; on D(1A) dopamine receptor, > 10 µM; in experiment [3], 8.1 µM; on D(3) dopamine receptor, 0.00038 µM.

Consider `COc1ccccc1N1CCN(CCCCNC(=O)c2cc3ccccc3[nH]2)CC1`, for which the Ki in experiment [4] stood at 0.076 µM; at D(2) dopamine receptor it was 0.16 µM; in experiment [1], 0.0118 µM; on D(1A) dopamine receptor, 0.97 µM; in experiment [3], 0.666 µM; on D(3) dopamine receptor it was 0.0029 µM.

Take `COc1ccccc1N1CCN(CCNCc2coc(-c3cc4ccccc4o3)n2)CC1`: the Ki at D(2) dopamine receptor is 0.518 µM; on D(1A) dopamine receptor, > 10 µM; on D(3) dopamine receptor, 0.759 µM.

Take `COc1ccccc1N1CCN(CC2CCN(C(=O)c3cc4ccccc4o3)CC2)CC1`: the Ki was 0.244 µM at D(2) dopamine receptor, 2.68 µM on D(1A) dopamine receptor and 0.074 µM on D(3) dopamine receptor.

Consider `COc1ccccc1N1CCN(CCCCNC(=O)[C@H]2Cc3ccccc3CN2)CC1`, for which the Ki on D(3) dopamine receptor was 0.0043 µM.

In experiment [4], `COc1ccccc1N1CCN(CCCCNC(=O)c2ccc3ccccc3c2)CC1` [BP-897] yielded a Ki of 0.083 µM.

With `COc1ccccc1N1CCN(CCCCN2CCn3c(cc4ccccc43)C2=O)CC1`, the inhibition constant Ki in experiment [4] worked out at 0.089 µM; at D(2) dopamine receptor, 0.045 µM; in experiment [1], 0.0049 µM; at D(1A) dopamine receptor, 1.57 µM; in experiment [3], 0.033 µM; at D(3) dopamine receptor, 0.00087 µM.

In turn, `NCCc1c[nH]c2ccc(O)cc12` yielded an Activity in experiment [5] of 30 µM.

As to `O=C(NCCCCN1CCN(c2ccc(Cl)cc2Cl)CC1)c1cc2ccccc2cn1`, the Ki in experiment [4] was 1.05 µM; at D(2) dopamine receptor, 0.342 µM; in experiment [1], 1.05 µM; at D(1A) dopamine receptor it was 7.75 µM; in experiment [3], 0.629 µM; at D(3) dopamine receptor, 0.00066 µM.

In turn, `N#Cc1ccc(N2CCN(CCCCNC(=O)c3cc4ccccc4o3)CC2)cc1` showed a Ki at D(3) dopamine receptor of 0.0413 µM.

Consider `COc1ccccc1N1CCN(CCNCc2coc(-c3ccc4ccccc4c3)n2)CC1`, for which the Ki at D(2) dopamine receptor is 0.086 µM; on D(1A) dopamine receptor, > 10 µM; on D(3) dopamine receptor, 0.295 µM.

On to `O=C(NCCCCN1CCN(c2ccc(Cl)cc2Cl)CC1)c1cc2ccccc2[nH]1`, for which the Ki is > 10 µM in experiment [4], > 10 µM at D(1A) dopamine receptor and 0.547 µM in experiment [3].

As for `COc1ccccc1N1CCN(CCCCNC(=O)c2nc3ccccc3n3cccc23)CC1`, the Ki was 0.059 µM at D(2) dopamine receptor, 0.778 µM on D(1A) dopamine receptor and 0.028 µM at D(3) dopamine receptor.

On to `O=C(NCCCCN1CCN(c2ccc(Cl)c(Cl)c2)CC1)c1cc2ccccc2o1`, for which the Ki at D(2) dopamine receptor came out at 0.333 µM; on D(1A) dopamine receptor it was 1.66 µM; on D(3) dopamine receptor, 0.0078 µM.

At D(3) dopamine receptor, `COc1ccccc1N1CCN(CCCCNC(=O)[C@@H]2Cc3ccccc3CN2)CC1` displayed a Ki of 0.0092 µM.

Regarding `COc1ccccc1N1CCN(CCCCNC(=O)c2cnc3ccccc3n2)CC1`, the Ki on D(2) dopamine receptor amounted to 0.084 µM; on D(1A) dopamine receptor, 1.44 µM; on D(3) dopamine receptor, 0.011 µM.

Take `COc1ccccc1N1CCN(CCCCNC(=O)c2ccc3ccccc3n2)CC1`: the inhibitory constant (Ki) on D(2) dopamine receptor was 0.083 µM; at D(1A) dopamine receptor, 1.35 µM; on D(3) dopamine receptor it was 0.0048 µM.

Consider `O=C(NCCCCN1CCN(c2ccc(Cl)cc2Cl)CC1)c1cc2ccccc2o1`, for which the Ki came out at 1.89 µM in experiment [4]; 0.409 µM at D(2) dopamine receptor; 0.908 µM in experiment [1]; 7.66 µM at D(1A) dopamine receptor; 0.779 µM in experiment [3]; 0.00041 µM at D(3) dopamine receptor.

Source of the values: ChEMBL document CHEMBL1145068 (J Med Chem, 2003).
